Reference: publication PMC5413024, “Mechanistic insights into the more potent effect of KP-54 compared to KP-10 in vivo” (PLoS ONE, 2017)

Key:
[1] = system: plasma LH levels; assay: Study 2: plasma LH after a high dose or multiple i.p. injections of KP-10; format: in vivo, mouse; conditions: male mice, single i.p. injection of 1 nmol, mean ± s.e.m., n = 10
Protocol: Male mice received a single intraperitoneal (i.p.) injection of 100 μl of PBS (vehicle control), KP-10 (1 nmol), KP-10 (10 nmol), KP-54 (1 nmol) or a series of six i.p. injections (every 10 minutes over one hour) of KP-10 (1 nmol) to extend the duration of action of KP-10. 100 μl of blood was collected from a tail vein 10 min after the final injection and the mice were killed 2 hours after treatment by an injection of pentobarbital (100mg/kg i.p.). Blood was collected from the vena cava, mixed with 5 μl EDTA, centrifuged at 10,000 x g for 10 min at 4°C to obtain the plasma fraction, and stored at -20°C until assayed.
3–5 month old wild-type (129S6/SvEv) male mice were used in this study. The mice were housed in open cages on a 12 hour light cycle (lights on at 0700 h) at a controlled temperature (22°C), and were provided with food and water ad libitum. All experiments were performed under the authority of a United Kingdom Home Office Project License and were approved by a Cambridge Animal Ethics Committee.
Plasma LH was assayed using a commercial ELISA kit (LH Ultrasensitive Rodent ELISA, Endocrine Technologies Cat Number ERK 7010+) with a sensitivity of 0.3 ng/ml and 7% intra-assay and 10% inter-assay coefficients of variation. […]

[2] = system: plasma LH levels; assay: Study 1: plasma LH after a single i.p. injection of kisspeptin; format: in vivo, mouse; conditions: male mice, single i.p. injection of 1 nmol, ELISA, mean ± s.e.m.
Protocol: Male mice received a single intraperitoneal (i.p.) injection of 100 μl of PBS (vehicle control; 137 mM NaCl, 2.7 mM KCl, 10 mM Na2HPO4, 1.8mM KH2PO4, pH 7.4), KP-10 (1 nmol), or KP-54 (1 nmol) in PBS and LH levels in the plasma measured at 10 min and 2 h after treatment to compare early and late responses points. We chose the 10 min point as some studies have shown that KP-10 injection results in maximal LH secretion after 10–15 min [16, 18]. 100 μl of blood was collected from a tail vein 10 min after injection, mixed with 5 μl EDTA and centrifuged at 10,000 x g for 10 min at 4°C. The plasma supernatant was stored at -20°C until assayed. Two hours after injection, mice were deeply anaesthetized with pentobarbital (100mg/kg i.p.), ~300 μl of blood was rapidly collected from the vena cava and processed as described above. Finally the mice were perfused intracardially with 20 ml of 4% paraformaldehyde in PBS. Brains were removed and incubated for 1 h in the same fixative as for perfusion and placed in PBS for sectioning and immunohistochemistry processing.
3–5 month old wild-type (129S6/SvEv) male mice were used in this study. The mice were housed in open cages on a 12 hour light cycle (lights on at 0700 h) at a controlled temperature (22°C), and were provided with food and water ad libitum. […]

CC[C@H](C)[C@H](NC(=O)[C@H](CCC(N)=O)NC(=O)[C@H](CCCNC(=N)N)NC(=O)[C@H](CO)NC(=O)[C@H](Cc1c[nH]cn1)NC(=O)[C@@H]1CCCN1C(=O)[C@H](C)NC(=O)[C@H](CO)NC(=O)[C@H](CC(C)C)NC(=O)CNC(=O)[C@@H]1CCCN1C(=O)[C@H](CCC(N)=O)NC(=O)[C@H](CCC(N)=O)NC(=O)[C@H](CCCNC(=N)N)NC(=O)[C@H](CO)NC(=O)CNC(=O)[C@H](CO)NC(=O)[C@H](CO)NC(=O)[C@H](CCC(=O)O)NC(=O)[C@@H]1CCCN1C(=O)[C@@H]1CCCN1C(=O)[C@@H]1CCCN1C(=O)[C@H](CO)NC(=O)[C@H](CC(C)C)NC(=O)[C@H](CO)NC(=O)[C@@H](NC(=O)CN)[C@@H](C)O)C(=O)N1CCC[C@H]1C(=O)N[C@@H](C)C(=O)N1CCC[C@H]1C(=O)N[C@@H](CCC(N)=O)C(=O)NCC(=O)N[C@@H](C)C(=O)N[C@H](C(=O)N[C@@H](CC(C)C)C(=O)N[C@H](C(=O)N[C@@H](CCC(N)=O)C(=O)N[C@@H](CCCNC(=N)N)C(=O)N[C@@H](CCC(=O)O)C(=O)N[C@@H](CCCCN)C(=O)N[C@@H](CC(=O)O)C(=O)N[C@@H](CC(C)C)C(=O)N1CCC[C@H]1C(=O)N[C@@H](CC(N)=O)C(=O)N[C@@H](Cc1ccc(O)cc1)C(=O)N[C@@H](CC(N)=O)C(=O)N[C@@H](Cc1c[nH]c2ccccc12)C(=O)N[C@@H](CC(N)=O)C(=O)N[C@@H](CO)C(=O)N[C@@H](Cc1ccccc1)C(=O)NCC(=O)N[C@@H](CC(C)C)C(=O)N[C@@H](CCCNC(=N)N)C(=O)N[C@@H](Cc1ccccc1)C(N)=O)C(C)C)C(C)C [KP-54]
plasma LH level at 2 hrs [1]: 9.62 ± 1.67 ng/mL | plasma LH level 10 min post-injection ([2]; tail vein blood, n = 8, PBS 0.06 ± 0.04): 5.70 ± 0.69 ng/mL | plasma LH level 2 hours post-injection ([2]; vena cava blood, n = 8): 6.42 ± 1.74 ng/mL
